# Legend:
# Japanese bulrush [1] = assay: Test Example 1: herbicidal activity, application before weed generation under submerged conditions (Table 16, symbol B); type: in vivo, Japanese bulrush (Schoenoplectus juncoides); conditions: 320 g/ha applied herbicide
# In short: (§1)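 Alluvial soil was flooded to 4 cm depth, weed seeds were sown mixed and 2.5-leaf rice seedlings were transplanted. On sowing day, the compound's emulsion, diluted in water to a set dose, was applied to the water surface. Plants grew at 25–30 °C and were scored 0–5 after three weeks.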
# oval-leafed pondweed [2] = assay: Test Example 1: herbicidal activity, application before weed generation under submerged conditions (Table 16, symbol C); type: in vivo, oval-leafed pondweed (Monochoria vaginalis); conditions: 320 g/ha applied herbicide
# In short: as §1
# Japanese bulrush [3] = assay: Test Example 2: herbicidal activity, application during weed generation under submerged conditions (Table 17, symbol B); type: in vivo, Japanese bulrush (Schoenoplectus juncoides); conditions: AAH 320 g/ha; application during weed generation, submerged conditions
# In short: (§2)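 In this pot test, flooded alluvial soil (water depth 4 cm) holds all three species sown as a mixture. Once seedlings have one to two leaves, the compound's emulsion, thinned with water to the intended dose, is poured on the water; grading follows after three weeks on the earlier criteria.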
# oval-leafed pondweed [4] = assay: Test Example 2: herbicidal activity, application during weed generation under submerged conditions (Table 17, symbol C); type: in vivo, oval-leafed pondweed (Monochoria vaginalis); conditions: AAH 320 g/ha; application during weed generation, submerged conditions
# In short: as §2
# rice flat sedge = assay: Test Example 3: herbicidal effect by foliage application, Wagner pot (Table 18, symbol E); type: in vivo, rice flat sedge (Cyperus iria); conditions: 320 g/ha
# In short: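 Plants were sown in alluvial soil held under 0.1–0.5 cm standing water and grown 14 days in a greenhouse at 25–30 °C. An emulsifiable formulation, water-diluted to the set dose, was then sprayed onto the foliage, and effects were scored three weeks later using previously defined criteria.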
# green foxtail [5] = assay: Test Example 4: herbicidal effect by soil treatment (Table 19, symbol G); type: in vivo, green foxtail (Setaria viridis); conditions: 320 g/ha
# In short: (§3)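 Three weeks of greenhouse growth at 25° C. to 30° C. followed a uniform surface spray of water-diluted emulsion at a predetermined herbicide amount. Seeds had been sown beforehand under about 1.5 cm of sterilized diluvial soil. Grading followed criteria set out in an earlier test.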
# wild oat = assay: Test Example 4: herbicidal effect by soil treatment (Table 19, symbol I); type: in vivo, wild oat (Avena fatua); conditions: 320 g/ha
# In short: as §3
# Italian ryegrass = assay: Test Example 4: herbicidal effect by soil treatment (Table 19, symbol K); type: in vivo, Italian ryegrass (Lolium multiflorum); conditions: 320 g/ha
# In short: as §3
# windgrass [6] = assay: Test Example 4: herbicidal effect by soil treatment (Table 19, symbol L); type: in vivo, windgrass (Apera spica-venti); conditions: 320 g/ha
# In short: as §3
# velvetleaf = assay: Test Example 4: herbicidal effect by soil treatment (Table 19, symbol M); type: in vivo, velvetleaf (Abutilon theophrasti); conditions: 320 g/ha
# In short: as §3
# persian speedwell = assay: Test Example 4: herbicidal effect by soil treatment (Table 19, symbol R); type: in vivo, Persian speedwell (Veronica persica); conditions: 320 g/ha
# In short: as §3
# southern crabgrass = assay: Test Example 5: herbicidal effect by foliage application, plastic box (Table 20, symbol F); type: in vivo, southern crabgrass (Digitaria ciliaris); conditions: foliage application, 320 g/ha, evaluated three weeks after application
# In short: (§4)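 Plants sown in sterilized diluvial soil and grown 14 days in a greenhouse at 25° C to 30° C, then sprayed on the foliage with the compound's emulsion diluted in water to a predetermined herbicide amount. Injury to weeds and crops scored three weeks after application on a visual rating scale.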
# green foxtail [7] = assay: Test Example 5: herbicidal effect by foliage application, plastic box (Table 20, symbol G); type: in vivo, green foxtail (Setaria viridis); conditions: foliage application, 320 g/ha, evaluated three weeks after application
# In short: as §4
# windgrass [8] = assay: Test Example 5: herbicidal effect by foliage application, plastic box (Table 20, symbol L); type: in vivo, windgrass (Apera spica-venti); conditions: foliage application, 320 g/ha, evaluated three weeks after application
# In short: as §4
# lambsquarters = assay: Test Example 5: herbicidal effect by foliage application, plastic box (Table 20, symbol O); type: in vivo, lambsquarters (Chenopodium album); conditions: foliage application, 320 g/ha, evaluated three weeks after application
# In short: as §4
# chickweed = assay: Test Example 5: herbicidal effect by foliage application, plastic box (Table 20, symbol P); type: in vivo, common chickweed (Stellaria media); conditions: foliage application, 320 g/ha, evaluated three weeks after application
# In short: as §4
compound,measurement,setting,value
Cc1nn(C)c(=O)c(-c2c(-c3ccc(OCC(F)(F)F)cc3)sc3ccc(F)cc23)c1O [2-049],Herbicidal effect on B: Japanese bulrush (grade 0-5),Japanese bulrush [1],3 (Herbicidal rate of 40% or more and less than 70%)
same,Herbicidal effect on C: oval-leafed pondweed (grade 0-5),oval-leafed pondweed [2],3 (Herbicidal rate of 40% or more and less than 70%)
same,"herbicidal effect rating, B: Japanese bulrush",Japanese bulrush [3],2 (Herbicidal rate of 20% or more and less than 40%)
same,"herbicidal effect rating, C: oval-leafed pondweed",oval-leafed pondweed [4],2 (Herbicidal rate of 20% or more and less than 40%)
same,"herbicidal effect on E (rice flat sedge), rating 0-5",rice flat sedge,5 (Herbicidal rate of 90% or more (almost completely withered))
same,"herbicidal effect rating, G: green foxtail",green foxtail [5],5 (Herbicidal rate of 90% or more (almost completely withered))
same,"herbicidal effect rating, I: wild oat",wild oat,0 (Herbicidal rate of 5% or less (almost no effect))
same,"herbicidal effect rating, K: Italian ryegrass",Italian ryegrass,4 (Herbicidal rate of 70% or more and less than 90%)
same,"herbicidal effect rating, L: windgrass",windgrass [6],5 (Herbicidal rate of 90% or more (almost completely withered))
same,"herbicidal effect rating, M: velvetleaf",velvetleaf,5 (Herbicidal rate of 90% or more (almost completely withered))
same,"herbicidal effect rating, R: persian speedwell",persian speedwell,4 (Herbicidal rate of 70% or more and less than 90%)
same,herbicidal effect on F: southern crabgrass,southern crabgrass,5 (Herbicidal rate of 90% or more (almost completely withered))
same,herbicidal effect on G: green foxtail,green foxtail [7],5 (Herbicidal rate of 90% or more (almost completely withered))
same,herbicidal effect on L: windgrass,windgrass [8],5 (Herbicidal rate of 90% or more (almost completely withered))
same,herbicidal effect on O: lambsquarters,lambsquarters,5 (Herbicidal rate of 90% or more (almost completely withered))
same,herbicidal effect on P: chickweed,chickweed,5 (Herbicidal rate of 90% or more (almost completely withered))
C=CCOc1ccc(-c2sc3ccc(F)cc3c2-c2c(O)c(C)nn(C)c2=O)cc1 [2-051],Herbicidal effect on B: Japanese bulrush (grade 0-5),Japanese bulrush [1],4 (Herbicidal rate of 70% or more and less than 90%)
same,Herbicidal effect on C: oval-leafed pondweed (grade 0-5),oval-leafed pondweed [2],4 (Herbicidal rate of 70% or more and less than 90%)
same,"herbicidal effect rating, B: Japanese bulrush",Japanese bulrush [3],3 (Herbicidal rate of 40% or more and less than 70%)
same,"herbicidal effect rating, C: oval-leafed pondweed",oval-leafed pondweed [4],1 (Herbicidal rate of 5% or more and less than 20%)
same,"herbicidal effect on E (rice flat sedge), rating 0-5",rice flat sedge,5 (Herbicidal rate of 90% or more (almost completely withered))
same,"herbicidal effect rating, G: green foxtail",green foxtail [5],5 (Herbicidal rate of 90% or more (almost completely withered))
same,"herbicidal effect rating, I: wild oat",wild oat,0 (Herbicidal rate of 5% or less (almost no effect))
same,"herbicidal effect rating, K: Italian ryegrass",Italian ryegrass,0 (Herbicidal rate of 5% or less (almost no effect))
same,"herbicidal effect rating, L: windgrass",windgrass [6],3 (Herbicidal rate of 40% or more and less than 70%)
same,"herbicidal effect rating, M: velvetleaf",velvetleaf,3 (Herbicidal rate of 40% or more and less than 70%)
same,"herbicidal effect rating, R: persian speedwell",persian speedwell,4 (Herbicidal rate of 70% or more and less than 90%)
same,herbicidal effect on F: southern crabgrass,southern crabgrass,5 (Herbicidal rate of 90% or more (almost completely withered))
same,herbicidal effect on G: green foxtail,green foxtail [7],5 (Herbicidal rate of 90% or more (almost completely withered))
same,herbicidal effect on L: windgrass,windgrass [8],5 (Herbicidal rate of 90% or more (almost completely withered))
same,herbicidal effect on O: lambsquarters,lambsquarters,5 (Herbicidal rate of 90% or more (almost completely withered))
same,herbicidal effect on P: chickweed,chickweed,5 (Herbicidal rate of 90% or more (almost completely withered))
C#CCOc1ccc(-c2sc3ccc(F)cc3c2-c2c(O)c(C)nn(C)c2=O)cc1 [2-053],Herbicidal effect on B: Japanese bulrush (grade 0-5),Japanese bulrush [1],3 (Herbicidal rate of 40% or more and less than 70%)
same,Herbicidal effect on C: oval-leafed pondweed (grade 0-5),oval-leafed pondweed [2],4 (Herbicidal rate of 70% or more and less than 90%)
same,"herbicidal effect rating, B: Japanese bulrush",Japanese bulrush [3],3 (Herbicidal rate of 40% or more and less than 70%)
same,"herbicidal effect rating, C: oval-leafed pondweed",oval-leafed pondweed [4],3 (Herbicidal rate of 40% or more and less than 70%)
same,"herbicidal effect on E (rice flat sedge), rating 0-5",rice flat sedge,4 (Herbicidal rate of 70% or more and less than 90%)
same,"herbicidal effect rating, G: green foxtail",green foxtail [5],4 (Herbicidal rate of 70% or more and less than 90%)
same,"herbicidal effect rating, I: wild oat",wild oat,0 (Herbicidal rate of 5% or less (almost no effect))
same,"herbicidal effect rating, K: Italian ryegrass",Italian ryegrass,0 (Herbicidal rate of 5% or less (almost no effect))
same,"herbicidal effect rating, L: windgrass",windgrass [6],0 (Herbicidal rate of 5% or less (almost no effect))
same,"herbicidal effect rating, M: velvetleaf",velvetleaf,3 (Herbicidal rate of 40% or more and less than 70%)
same,"herbicidal effect rating, R: persian speedwell",persian speedwell,5 (Herbicidal rate of 90% or more (almost completely withered))
same,herbicidal effect on F: southern crabgrass,southern crabgrass,4 (Herbicidal rate of 70% or more and less than 90%)
same,herbicidal effect on G: green foxtail,green foxtail [7],5 (Herbicidal rate of 90% or more (almost completely withered))
same,herbicidal effect on L: windgrass,windgrass [8],4 (Herbicidal rate of 70% or more and less than 90%)
same,herbicidal effect on O: lambsquarters,lambsquarters,5 (Herbicidal rate of 90% or more (almost completely withered))
same,herbicidal effect on P: chickweed,chickweed,5 (Herbicidal rate of 90% or more (almost completely withered))
CSc1ccc(-c2sc3ccc(F)cc3c2-c2c(O)c(C)nn(C)c2=O)cc1 [2-076],Herbicidal effect on B: Japanese bulrush (grade 0-5),Japanese bulrush [1],0 (Herbicidal rate of 5% or less (almost no effect))
same,Herbicidal effect on C: oval-leafed pondweed (grade 0-5),oval-leafed pondweed [2],0 (Herbicidal rate of 5% or less (almost no effect))
same,"herbicidal effect rating, B: Japanese bulrush",Japanese bulrush [3],3 (Herbicidal rate of 40% or more and less than 70%)
same,"herbicidal effect rating, C: oval-leafed pondweed",oval-leafed pondweed [4],0 (Herbicidal rate of 5% or less (almost no effect))
same,"herbicidal effect on E (rice flat sedge), rating 0-5",rice flat sedge,5 (Herbicidal rate of 90% or more (almost completely withered))
same,"herbicidal effect rating, G: green foxtail",green foxtail [5],4 (Herbicidal rate of 70% or more and less than 90%)
same,"herbicidal effect rating, I: wild oat",wild oat,0 (Herbicidal rate of 5% or less (almost no effect))
same,"herbicidal effect rating, K: Italian ryegrass",Italian ryegrass,4 (Herbicidal rate of 70% or more and less than 90%)
same,"herbicidal effect rating, L: windgrass",windgrass [6],4 (Herbicidal rate of 70% or more and less than 90%)
same,"herbicidal effect rating, M: velvetleaf",velvetleaf,2 (Herbicidal rate of 20% or more and less than 40%)
same,"herbicidal effect rating, R: persian speedwell",persian speedwell,5 (Herbicidal rate of 90% or more (almost completely withered))
same,herbicidal effect on F: southern crabgrass,southern crabgrass,5 (Herbicidal rate of 90% or more (almost completely withered))
same,herbicidal effect on G: green foxtail,green foxtail [7],5 (Herbicidal rate of 90% or more (almost completely withered))
same,herbicidal effect on L: windgrass,windgrass [8],5 (Herbicidal rate of 90% or more (almost completely withered))
same,herbicidal effect on O: lambsquarters,lambsquarters,5 (Herbicidal rate of 90% or more (almost completely withered))
same,herbicidal effect on P: chickweed,chickweed,5 (Herbicidal rate of 90% or more (almost completely withered))
CCCC(=O)Oc1c(C)nn(C)c(=O)c1-c1c(-c2ccc(SC)cc2)sc2ccc(F)cc12 [2-077],Herbicidal effect on B: Japanese bulrush (grade 0-5),Japanese bulrush [1],4 (Herbicidal rate of 70% or more and less than 90%)
same,Herbicidal effect on C: oval-leafed pondweed (grade 0-5),oval-leafed pondweed [2],5 (Herbicidal rate of 90% or more (almost completely withered))
same,"herbicidal effect rating, B: Japanese bulrush",Japanese bulrush [3],3 (Herbicidal rate of 40% or more and less than 70%)
same,"herbicidal effect rating, C: oval-leafed pondweed",oval-leafed pondweed [4],3 (Herbicidal rate of 40% or more and less than 70%)
same,"herbicidal effect on E (rice flat sedge), rating 0-5",rice flat sedge,5 (Herbicidal rate of 90% or more (almost completely withered))
same,"herbicidal effect rating, G: green foxtail",green foxtail [5],4 (Herbicidal rate of 70% or more and less than 90%)
same,"herbicidal effect rating, I: wild oat",wild oat,2 (Herbicidal rate of 20% or more and less than 40%)
same,"herbicidal effect rating, K: Italian ryegrass",Italian ryegrass,3 (Herbicidal rate of 40% or more and less than 70%)
same,"herbicidal effect rating, L: windgrass",windgrass [6],3 (Herbicidal rate of 40% or more and less than 70%)
same,"herbicidal effect rating, M: velvetleaf",velvetleaf,3 (Herbicidal rate of 40% or more and less than 70%)
same,"herbicidal effect rating, R: persian speedwell",persian speedwell,5 (Herbicidal rate of 90% or more (almost completely withered))
same,herbicidal effect on F: southern crabgrass,southern crabgrass,5 (Herbicidal rate of 90% or more (almost completely withered))
same,herbicidal effect on G: green foxtail,green foxtail [7],5 (Herbicidal rate of 90% or more (almost completely withered))
same,herbicidal effect on L: windgrass,windgrass [8],5 (Herbicidal rate of 90% or more (almost completely withered))
same,herbicidal effect on O: lambsquarters,lambsquarters,5 (Herbicidal rate of 90% or more (almost completely withered))
same,herbicidal effect on P: chickweed,chickweed,5 (Herbicidal rate of 90% or more (almost completely withered))

# Reference: patent US20230085307A1, “PYRIDAZINONE COMPOUND AND HERBICIDE” (NISSAN CHEMICAL CORPORATION, priority 2019, published 2023)
